Patent US11512079B2, “Heterocycle substituted pyridine derivative antifungal agents” (Amplyx Pharmaceuticals, Inc., priority 2017, dated 2022)
In brackets after ≈: the same amount, converted by molar mass.

What was measured:
[1] = system: C. neoformans H99; assay: Synergy with FLC, standard microtiter checkerboard dilution; type: cell-based, Cryptococcus neoformans; conditions: synergy = FICI <0.5, MIC read at 50% inhibition
Description: Gwt1 inhibitors are synergistic with FLC. […] Importantly, no antagonism was observed.
(§1) Antifungal susceptibility testing. To establish antimicrobial activity, broth microdilution susceptibility testing was performed according to Clinical and Laboratory Standards Institute (CLSI) guidelines M27-A3 for yeasts and M38-A2 for molds. Compound 2 and analogs were first diluted in DMSO to obtain intermediate dilutions. These were further diluted in microtiter plates to obtain a final concentration of 2 to 0.002 μg/mL. 1 μl of DMSO was added to “No drug” control wells. The solutions were mixed on a plate shaker for 10 mins and plates incubated at 35° C. for 40 to 48 h (C. albicans, A. fumigatus) and 72 h (C. neoformans). The minimum concentration that led to 50% reduction in fungal growth as compared to the control (with the aid of a reading mirror) was determined as the minimum inhibitory concentration (MIC) for C. albicans and C. neoformans. The minimum concentration that led to shortening of hyphae as compared to hyphal growth in DMSO control wells was determined as the minimum effective concentration (MEC) for A. fumigatus (as read for echinocandins). The use of the MIC and MEC endpoints for Compound 2 against yeasts and molds, respectively has been described previously.

[2] = system: C. neoformans H99; assay: Antifungal susceptibility testing, CLSI broth microdilution (Example 496/497); type: cell-based, Cryptococcus neoformans; conditions: for MIC: Cryptococcus neoformans, H99, 72 h, read-out: MIC C. neoformans H99; for MIC C. neoformans H99: 50% reduction in fungal growth, 72 h, 35° C.
Source text: (§2) Isolates tested. C. neoformans strains H99, DUMC 118.00, DUMC 158.03 and C. gattii strains R272, and RSA-MW-3515 were obtained from Duke University. C. albicans 90028, A. fumigatus MYA3626, C. neoformans 14116, C. neoformans 76484 and the pathogenic Cryptococcus reference strains panel (ATCC MP-11) were obtained from American Type Culture Collection (ATCC, Manassas, Va., USA). The MP-11 panel consists of strains representing eight molecular types and three subtypes of C. neoformans and C. gattii.
as §1

[3] = system: C. albicans 90028; assay: as above; type: cell-based, Candida albicans; conditions: MIC, 50% reduction in growth, 40 to 48 h
Source text: as §2, §1

[4] = system: C. neoformans isolates; assay: Activity vs susceptible and FLC non-susceptible/resistant strains, broth microdilution; type: cell-based, Cryptococcus neoformans
Source text: (§3) The activity of Gwt1 inhibitors against susceptible and FLC non-susceptible/resistant strains.
as §2
(§4) Antifungal susceptibility testing. To establish antimicrobial activity, broth microdilution susceptibility testing was performed according to Clinical and Laboratory Standards Institute (CLSI) guidelines M27-A3 for yeasts and M38-A2 for molds. Compound 2 and analogs were first diluted in DMSO to obtain intermediate dilutions. These were further diluted in microtiter plates to obtain a final concentration of 2 to 0.002 μg/mL. 1 μl of DMSO was added to “No drug” control wells. The solutions were mixed on a plate shaker for 10 mins and plates incubated at 35° C. for 40 to 48 h (C. albicans, A. fumigatus) and 72 h (C. neoformans). The minimum concentration that led to 50% reduction in fungal growth as compared to the control (with the aid of a reading mirror) was determined as the minimum inhibitory concentration (MIC) for C. albicans and C. neoformans.

[5] = system: C. gattii isolates; assay: as above; type: cell-based, Cryptococcus gattii
Source text: as §3, §2, §4

[6] = system: C. neoformans strain H99; assay: Delayed treatment model of cryptococcal meningitis, CD-1 mice; type: in vivo, Cryptococcus neoformans; conditions: treatment from 24 h after infection, 7 days; prodrug 60 mg/kg IP QD with 100 mg/kg ABT PO; AMB 3 mg/kg IP; n=5
Description: Infection was initiated on Day 1 and treatment was initiated 24 h later (Day 2) rather than 1 h. Treatments were administered for 7 days (final dose on Day 8) and mice were sacrificed on Day 9 for CFU enumeration.
Delayed treatment model. […] Fungal burden data were log10 transformed and evaluated using Kruskal-Wallis tests with Dunn's Multiple Comparison Test for Post-hoc analysis (Prism 5; GraphPad Software, Inc., San Diego, Calif.). A P value of ≤0.05 is considered statistically significant

[7] = system: C. neoformans US isolates; conditions: cited from earlier work
[8] = system: A. fumigatus MYA3626; assay: Antifungal susceptibility testing, CLSI broth microdilution (Example 496/497); type: cell-based, Aspergillus fumigatus; conditions: MEC, shortening of hyphae, 40 to 48 h
Source text: as §2, §1

[9] = system: strains of C. neoformans and C. gattii; assay: Activity vs Cryptococcus, summary over the strains tested; type: cell-based, Cryptococcus neoformans and Cryptococcus gattii; conditions: for MIC90: panel of 18 isolates of C. neoformans and C. gattii
Source text: as §3, §2, §4

[10] = system: C. gattii WM276; assay: Antifungal susceptibility testing, CLSI broth microdilution (Example 496/497); type: cell-based, Cryptococcus gattii; conditions: 50% reduction in fungal growth
Source text: as §2, §1

[11] = system: strains of C. albicans; conditions: cited from earlier work
[12] = mouse, in vivo; cited from earlier work
[13] = system: Candida tropicalis strains; conditions: cited from earlier work
[14] = system: C. neoformans strain H99; assay: Murine model of cryptococcal meningitis, Compound 1 alone and with FLC (no ABT), CD-1 mice; type: in vivo, Cryptococcus neoformans; conditions: Compound 1 390 mg/kg PO thrice daily or FLC 80 mg/kg/day IP, 7 days, n=10
Description: Treatment was initiated within 1 h after infection.
Mice were weighed daily and observed for acute and chronic adverse symptoms. […] Fungal burden data were log10 transformed and evaluated using Kruskal-Wallis tests with Dunn's Multiple Comparison Test for Post-hoc analysis (Prism 5; GraphPad Software, Inc., San Diego, Calif.).

[15] = system: 46 strains of C. neoformans; conditions: global study; cited from earlier work

Nc1ncccc1-c1cc(Cc2ccc(OCc3ccccc3)cc2)no1
FICI in combination with FLC [1]: 0.37 | MIC [2]: 0.031 µg/mL (≈ 0.0867 µM) | fold improved anti-C. neoformans H99 activity compared to Compound 2 ([2]; from MIC values): 8 fold

C[C@@H]1[C@H](O)[C@@H](C)/C=C/C=C/C=C/C=C/C=C/C=C/C=C/[C@H](O[C@@H]2O[C@H](C)[C@@H](O)[C@H](N)[C@@H]2O)C[C@@H]2O[C@](O)(C[C@@H](O)C[C@@H](O)[C@H](O)CC[C@@H](O)C[C@@H](O)CC(=O)O[C@H]1C)C[C@H](O)[C@H]2C(=O)O [AMB, amphotericin B, reference compound]
MIC or MEC C. albicans 90028 [3]: 1 µg/mL (≈ 1.08 µM) | MIC ([4]; C. neoformans 14116): 0.25 µg/mL (≈ 0.271 µM) | MIC ([4]; C. neoformans 76484): 0.25 µg/mL (≈ 0.271 µM) | MIC ([4]; C. neoformans DUMC 118.00 (FLC-resistant)): 0.25 µg/mL (≈ 0.271 µM) | MIC ([4]; C. neoformans DUMC 158.03 (FLC-resistant)): 1 µg/mL (≈ 1.08 µM) | MIC ([4]; C. neoformans H99): 0.25 µg/mL (≈ 0.271 µM) | MIC ([4]; C. neoformans MYA-4564): 0.25 µg/mL (≈ 0.271 µM) | MIC ([4]; C. neoformans MYA-4565): 0.125 µg/mL (≈ 0.135 µM) | MIC ([4]; C. neoformans MYA-4566): 0.25 µg/mL (≈ 0.271 µM) | MIC ([4]; C. neoformans MYA-4567): 0.25 µg/mL (≈ 0.271 µM) | MIC C. neoformans H99 [2]: 0.25 µg/mL (≈ 0.271 µM) | MIC ([5]; C. gattii MYA-4093): 0.25 µg/mL (≈ 0.271 µM) | MIC ([5]; C. gattii MYA-4094): 0.25 µg/mL (≈ 0.271 µM) | MIC ([5]; C. gattii MYA-4560): 0.063 µg/mL (≈ 0.0682 µM) | MIC ([5]; C. gattii MYA-4561): 0.25 µg/mL (≈ 0.271 µM) | MIC ([5]; C. gattii MYA-4562): 0.25 µg/mL (≈ 0.271 µM) | MIC ([5]; C. gattii MYA-4563): 0.125 µg/mL (≈ 0.135 µM) | MIC ([5]; C. gattii MYA-4877): 0.25 µg/mL (≈ 0.271 µM) | MIC ([5]; C. gattii RSA-MW-3615 (FLC-resistant)): 0.25 µg/mL (≈ 0.271 µM) | reduction of log10 CFU/g lung vs untreated control, delayed treatment [6]: 4.02 log10 CFU/g | MIC90 versus C. neoformans, US isolates [7]: 2 µg/mL (≈ 2.16 µM) | MIC or MEC A. fumigatus MYA3626 [8]: 1 µg/mL (≈ 1.08 µM) | MIC GEOMEAN ([9]; geometric mean over the 18 isolates of C. neoformans and C. gattii): 0.215 µg/mL (≈ 0.233 µM) | MIC90 [9]: 0.25 µg/mL (≈ 0.271 µM) | MIC C. gattii WM276 [10]: 0.25 µg/mL (≈ 0.271 µM)

Nc1ncccc1-c1cc(Cc2ccc(COc3ccccn3)cc2)no1 [Compound 2]
FICI in combination with FLC [1]: 0.37 | strains with synergy with FLC [11]: 2 of 20 | MIC or MEC C. albicans 90028 [3]: 0.008 µg/mL (≈ 0.0223 µM) | half-life in mice [12]: 1.40 to 2.75 h | MIC C. neoformans H99 [2]: 0.25 µg/mL (≈ 0.698 µM) | strains with synergy with FLC [13]: 9 of 10 | MIC or MEC A. fumigatus MYA3626 [8]: 0.008 µg/mL (≈ 0.0223 µM) | MIC90 [9]: 0.5 µg/mL (≈ 1.4 µM) | MIC C. gattii WM276 [10]: 0.125 µg/mL (≈ 0.349 µM)

OC(Cn1cncn1)(Cn1cncn1)c1ccc(F)cc1F [FLC, fluconazole]
MIC [2]: 2 µg/mL (≈ 6.53 µM) | reduction in lung fungal burden vs untreated control, monotherapy [14]: 1.30 log10 CFU/g | MIC ([10]; Cryptococcus gattii, WM276): 1 µg/mL (≈ 3.27 µM)

OC(Cn1cncn1)(Cn1cncn1)c1ccc(F)cc1F [FUC]
MIC90 versus 46 strains of C. neoformans [15]: 4 µg/mL

OC(Cn1cncn1)(Cn1cncn1)c1ccc(F)cc1F [fluconazole, Fluconazole]
reduction in brain fungal burden vs control group, monotherapy [14]: 1.04 log10 CFU/g

C[C@@H](c1nc(-c2ccc(C#N)cc2)cs1)[C@](O)(Cn1cncn1)c1cc(F)ccc1F [isavuconazole]
MIC90 versus 46 strains of C. neoformans [15]: 0.06 µg/mL
